Here are results for 13 compounds from US12070455B2, “Thienopyrrole compounds” (Gilead Sciences, Inc., priority 2021, dated 2024).

For orientation: pEC50 means −log10 of the EC50, conventionally taken in molar units.

SMILES strings stand for the structures. pEC50: −log10 of the molar value.

For one test, the target named is T1, TLR8 (Homo sapiens, UniProt Q9NR97).
T1 construct: Human peripheral blood mononuclear cells (PBMCs) consist of lymphocytes, monocytes and dendritic cells that express TLR7, TLR8 and TLR9; endogenous in cells; host or cells: cryopreserved human PBMCs from healthy donors
T1 sequence (Q9NR97 27-1041): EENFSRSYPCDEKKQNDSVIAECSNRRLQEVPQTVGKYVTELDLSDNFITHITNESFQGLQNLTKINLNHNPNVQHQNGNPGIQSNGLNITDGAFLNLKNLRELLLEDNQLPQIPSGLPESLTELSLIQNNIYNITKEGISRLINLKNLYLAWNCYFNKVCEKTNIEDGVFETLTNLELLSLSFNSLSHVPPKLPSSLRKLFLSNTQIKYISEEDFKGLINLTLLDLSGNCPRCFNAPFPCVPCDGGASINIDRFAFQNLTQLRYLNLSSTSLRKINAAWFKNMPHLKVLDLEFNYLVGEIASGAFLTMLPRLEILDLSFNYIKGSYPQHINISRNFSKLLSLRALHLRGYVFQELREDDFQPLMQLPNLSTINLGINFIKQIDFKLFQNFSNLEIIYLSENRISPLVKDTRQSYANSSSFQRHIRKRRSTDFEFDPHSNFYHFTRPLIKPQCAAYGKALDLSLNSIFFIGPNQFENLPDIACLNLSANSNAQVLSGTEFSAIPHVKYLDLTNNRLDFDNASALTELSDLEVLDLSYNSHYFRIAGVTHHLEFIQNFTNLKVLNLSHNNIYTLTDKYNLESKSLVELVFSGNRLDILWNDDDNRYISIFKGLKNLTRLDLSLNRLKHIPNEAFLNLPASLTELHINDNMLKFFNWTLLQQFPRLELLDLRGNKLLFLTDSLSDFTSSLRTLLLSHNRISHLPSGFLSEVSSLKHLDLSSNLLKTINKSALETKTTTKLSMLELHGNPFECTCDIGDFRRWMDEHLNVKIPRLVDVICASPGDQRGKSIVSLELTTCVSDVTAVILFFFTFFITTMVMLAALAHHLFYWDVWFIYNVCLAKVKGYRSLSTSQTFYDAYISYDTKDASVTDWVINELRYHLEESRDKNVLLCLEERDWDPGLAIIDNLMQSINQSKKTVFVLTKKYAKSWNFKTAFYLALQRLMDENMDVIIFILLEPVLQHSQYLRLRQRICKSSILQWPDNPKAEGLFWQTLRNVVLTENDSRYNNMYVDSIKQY
The experiment in a line: TLR8 human peripheral blood mononuclear cell (PBMC) cell-based assay. The following applies: human PBMCs; 1 h with antagonist, then TLR8 agonist Compound A 800 nM for 6 h; cytokines (TNFa and IL12p40) in supernatant; read-out: TLR-8 EC50. How it is done: TLR8 Human Peripheral Blood Mononuclear Cell (PBMC) Cell-Based Assay
Cryopreserved human PBMCs from healthy donors were thawed and resuspended in RPMI-1640 media with L-glutamine (Corning) supplemented with 10% Fetal Bovine Serum (Hyclone) and 1× Penicillin-Streptomycin (Corning). After counting, the cell density was adjusted to 2 million cells/ml and incubated for 1 hour at 37° C., 5% CO2 for recovery. Following the recovery, the cells were plated by adding 50 μl per well (100,000 cells) to 384-well cell culture plates (Greiner) containing 250 nl of test antagonists in 100% DMSO per well, in a 10 points dose response in quadruplicates. PBMCs were incubated in the presence of antagonists for one hour at 37° C., 5% CO2 before being stimulated with TLR8 agonist. Compound A (Gilead Sciences, U.S. Pat. No. 10,285,990) was used as the TLR8 agonist at a final concentration of 800 nM. PBMCs were incubated in the presence of antagonist and the TLR8 agonist for an additional 6 hours at 37° C., 5% CO2. At the end of the incubation, the cell culture plates were centrifuged at 500 g for 5 min, and the cell culture supernatant was collected. The level of cytokines (TNFa and IL12p40) in the supernatant was measured by electrochemiluminescence immunoassays (Mesoscale Discovery) following manufacturer's recommended protocols. The level of cytokine measured was plotted against the antagonist concentration and fitted to a sigmoidal function to determine the EC50, which are shown below in Table 6.

The target of another test is T2, TLR7 (Homo sapiens, UniProt Q9NYK1).
T2 construct: Human peripheral blood mononuclear cells (PBMCs) consist of lymphocytes, monocytes and dendritic cells that express TLR7, TLR8 and TLR9; endogenous in cells; host or cells: cryopreserved human PBMCs from healthy donors
T2 sequence (Q9NYK1 27-1049): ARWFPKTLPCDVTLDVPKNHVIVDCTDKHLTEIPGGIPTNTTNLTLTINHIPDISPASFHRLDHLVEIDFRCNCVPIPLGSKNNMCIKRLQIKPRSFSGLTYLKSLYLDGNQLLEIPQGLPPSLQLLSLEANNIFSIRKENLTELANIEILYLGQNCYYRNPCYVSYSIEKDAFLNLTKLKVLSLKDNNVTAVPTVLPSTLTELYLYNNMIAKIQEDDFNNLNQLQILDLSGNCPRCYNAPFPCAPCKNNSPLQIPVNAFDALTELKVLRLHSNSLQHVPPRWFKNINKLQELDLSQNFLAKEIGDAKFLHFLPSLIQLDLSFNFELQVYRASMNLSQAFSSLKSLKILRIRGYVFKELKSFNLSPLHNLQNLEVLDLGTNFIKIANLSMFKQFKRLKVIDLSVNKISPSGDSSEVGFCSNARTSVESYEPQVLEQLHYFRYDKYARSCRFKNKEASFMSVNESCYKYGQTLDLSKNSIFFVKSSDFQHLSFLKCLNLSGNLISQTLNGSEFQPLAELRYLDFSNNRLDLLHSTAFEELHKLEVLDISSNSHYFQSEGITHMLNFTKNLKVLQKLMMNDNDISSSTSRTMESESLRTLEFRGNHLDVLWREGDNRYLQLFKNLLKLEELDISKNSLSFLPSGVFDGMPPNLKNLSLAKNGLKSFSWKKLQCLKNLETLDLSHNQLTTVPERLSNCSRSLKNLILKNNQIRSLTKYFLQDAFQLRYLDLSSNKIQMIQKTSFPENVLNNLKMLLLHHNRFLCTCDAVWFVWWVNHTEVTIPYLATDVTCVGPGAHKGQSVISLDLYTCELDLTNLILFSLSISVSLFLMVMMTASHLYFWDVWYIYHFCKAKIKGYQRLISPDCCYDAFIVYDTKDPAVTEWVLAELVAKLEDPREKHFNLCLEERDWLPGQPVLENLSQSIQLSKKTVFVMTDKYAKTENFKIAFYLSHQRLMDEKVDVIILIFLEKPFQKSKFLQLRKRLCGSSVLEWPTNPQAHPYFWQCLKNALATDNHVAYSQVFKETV
Kind of test: TLR7 human peripheral blood mononuclear cell (PBMC) cell-based assay. The settings on record: human PBMCs; 1 h with test antagonist, then TLR7 agonist GS-986 400 nM for 6 h; cytokines (IL-6 and IFNα) in supernatant; read-out: TLR-7 EC50. An excerpt:
TLR7/9 Human Peripheral Blood Mononuclear Cell (PBMC) Cell-Based Assay
Human peripheral blood mononuclear cells (PBMCs) consist of lymphocytes, monocytes and dendritic cells that express TLR7, TLR8 and TLR9. These cells respond to TLR7, TLR8 and TLR9 ligand stimulation and produce cytokines and chemokines in vitro and in vivo. Human PBMCs are therefore suitable to be used in a cell-based assay to assess the in vitro potency of a TLR 7, 8, and/or 9 antagonist.
Cryopreserved human PBMCs from healthy donors were thawed and resuspended in RPMI-1640 media with L-glutamine (Corning) supplemented with 10% Fetal Bovine Serum (Hyclone) and 1× Penicillin-Streptomycin (Corning). After counting, the cell density was adjusted to 2 million cells/ml and incubated for 1 hour at 37° C., 5% CO2 for recovery. Following the recovery, the cells were plated by adding 50 μl per well (100,000 cells) to 384-well cell culture plates (Greiner) containing 250 nl of test antagonists in 100% DMSO per well, in a 10 points dose response in quadruplicates. PBMCs were incubated in the presence of test antagonists for one hour at 37° C., 5% CO2 before being stimulated with a TLR7 or TLR9 agonist. GS-986 (Gilead Sciences) was used as the TLR7 agonist at a final concentration of 400 nM. ODN-2216 (InvivoGen) was used as the TLR9 agonist at a final concentration of 3 μM. PBMCs were incubated in the presence of the test antagonist and the TLR7 (or TLR9) agonist for an additional 6 hours at 37° C., 5% CO2. At the end of the incubation, the cell culture plates were centrifuged at 500 g for 5 min, and the cell culture supernatant was collected. The level of cytokines (IL-6 and IFNα) in the supernatant was measured by electrochemiluminescence immunoassays (Mesoscale Discovery) following manufacturer's recommended protocols. The level of cytokine measured was plotted against the test antagonist concentration and fitted to a sigmoidal function to determine the EC50, which are shown below in Table 6.

Regarding `Cc1c(C2CCC(N3CC4(CCNC4=O)C3)CC2)sc2[nH]c(-c3cn4ncnc4c4c3CCC4)c(C(C)C)c12` (centres unmarked) [Example 27], the pEC50 on TLR8 was 8.59; on TLR7, 9.59.

Take `CC(C)c1c(-c2cn3ncnc3c3c2CCC3)[nH]c2sc(C(=O)N3CCNCC3)cc12` [Example 42]: the pEC50 on TLR8 is 9.16; on TLR7 it was 9.11.

For `CC(C)c1c(-c2cn3ncnc3c3c2CCC3)[nH]c2sc(C(=O)N(C)C3CCNCC3)cc12` [Example 41, 5-(8,9-dihydro-7H-cyclopenta[c][1,2,4]triazolo[1,5-a]pyridin-6-yl)-4-isopropyl-N-methyl-N-(piperidin-4-yl)-6H-thieno[2,3-b]pyrrole-2-carboxamide], the pEC50 on TLR8 was 8.59; on TLR7, 9.31.

In the case of `Cc1c(C23CCNCC2C3)sc2[nH]c(-c3cn4ncnc4c4c3CCC4)c(C(C)C)c12` (centres unmarked) [Example 5, 2-(3-azabicyclo[4.1.0]heptan-6-yl)-5-(8,9-dihydro-7H-cyclopenta[c][1,2,4]triazolo[1,5-a]pyridin-6-yl)-4-isopropyl-3-methyl-6H-thieno[2,3-b]pyrrole], the pEC50 on TLR8 is 8.75; on TLR7, 9.64.

With `Cc1c(C2CCN(C(=O)C3(N4CCOCC4)CC3)CC2)sc2[nH]c(-c3cn4ncnc4c4c3CCC4)c(C(C)C)c12` [Example 20], the negative-log EC50 (pEC50) on TLR8 was 7.65; on TLR7 it was 8.33.

Regarding `Cc1c(C2CCN(C(=O)[C@H]3C[C@@H](F)CN3)CC2)sc2[nH]c(-c3cn4ncnc4c4c3CCC4)c(C(C)C)c12` [Example 16], the pEC50 on TLR8 was 7.90; at TLR7, 8.84.

As to `Cc1c(C2CCN(C(=O)[C@H]3C[C@@H](O)CN3)CC2)sc2[nH]c(-c3cn4ncnc4c4c3CCC4)c(C(C)C)c12` [Example 31], the pEC50 at TLR8 was 8.20; on TLR7, 8.88.

For `Cc1c(C2CC3CCC(C2)N3)sc2[nH]c(-c3cn4ncnc4c4c3CCC4)c(C(C)C)c12` (centres unmarked) [Example 2], the results for the pEC50 at TLR8 and on TLR7 were 8.40 and 9.02, respectively.

With `CO[C@H]1CN[C@@H](C(=O)N2CCC(c3sc4[nH]c(-c5cn6ncnc6c6c5CCC6)c(C(C)C)c4c3C)CC2)C1` [Example 18], the pEC50 was 8.35 on TLR8 and 9.36 at TLR7.

On to `Cc1c(C2CCN(C(=O)[C@@H]3COCCN3)CC2)sc2[nH]c(-c3cn4ncnc4c4c3CCC4)c(C(C)C)c12` [Example 15], for which the pEC50 on TLR8 is 8.28; at TLR7, 9.54.

Regarding `Cc1c(C2CCNCC2)sc2[nH]c(-c3cn4ncnc4c4c3CCC4)c(C(C)C)c12` [Example 1, 5-(8,9-dihydro-7H-cyclopenta[c][1,2,4]triazolo[1,5-a]pyridin-6-yl)-4-isopropyl-3-methyl-2-(piperidin-4-yl)-6H-thieno[2,3-b]pyrrole], the pEC50 at TLR8 is 8.72; on TLR7, 9.96.

On to `Cc1c(C23CCN(CC(N)=O)CC2C3)sc2[nH]c(-c3cn4ncnc4c4c3CCC4)c(C(C)C)c12` (centres unmarked) [Example 10], for which the figures for the pEC50 at TLR8 and at TLR7 were 7.81 and 9.59, respectively.

Regarding `Cc1nc2c3c(c(-c4[nH]c5sc([C@@H]6C[C@H]7CC[C@@H](C6)N7CC(N)=O)c(C)c5c4C(C)C)cn2n1)COC3` [Example 46], the figures for the pEC50 on TLR8 and on TLR7 were 7.11 and 8.92, respectively.
